{"source": "patent US11369625B2", "about": "“Anti-tumor agent, anti-tumor effect enhancer, and anti-tumor kit” (FUJIFILM Corporation, priority 2017, dated 2022)", "key": {"[1]": {"test_system": "human pancreatic cancer cell line Capan-1", "assay": "Combinational effect test in Capan-1 subcutaneously implanted tumor-bearing model mouse (anti-tumor effect)", "type": "in vivo, BALB/cA Jcl-nu mice", "design": "key to vs. control: * statistically significant", "conditions": "for T/C (%): average RTV of treated group / average RTV of control group x 100, Day 33; for GC (%): growth of control, calculated from RTV at Day 33; for RTV (mean ± standard deviation): relative tumor volume, TV at Day 33 / TV at Day 1, tail vein once a week, three times, n=8; for vs. control: statistical significance of RTV vs. control group, Day 33", "method": "Combinational effect test in Capan-1 subcutaneously implanted tumor-bearing model mouse\nGemcitabine (hereinafter, also referred to as Gem), Abraxane (hereinafter, also referred to as Abx), and methanesulfonate of Compound A were used as test substances.\nGemcitabine was prepared by dissolving gemcitabine hydrochloride (manufactured by Teva Pharmaceutical Industries Limited) in physiological saline. Abraxane was prepared by dissolving Abraxane (manufactured by Celgene Corporation) in physiological saline.\nCapan-1 cell, a human pancreatic cancer cell line, was subcutaneously injected into the posterior flank of 5 to 6-week old female BALB/cA Jcl-nu mice. After tumor implantation, the major diameter (mm) and minor diameter (mm) of the tumor were measured, and the tumor volume (TV) was calculated. Mice were assigned to each group so that the average TV of each group was equal, and the day on which this grouping (n=8) was carried out was taken as Day 1.\nThe test liquid in Abraxane alone group was prepared to be 30 mg/kg/day as the administration dose. In addition, the test liquid in Compound A alone group was prepared to be 480 mg/kg/day. Compound A was administered from the mouse tail vein a total of three times from Day 1 once a week, and Abraxane was similarly administered from the mouse tail vein a total of three times from Day 1 once a week. In the combined administration group, Compound A was administered at 480 mg/kg/day and Abraxane was administered at 30 mg/kg/day.\nAs a comparative experiment, gemcitabine was used as a control. The test liquid of gemcitabine alone group was prepared to be 240 mg/kg/day. Gemcitabine was administered from the mouse tail vein a total of three times from Day 1 once a week. In the combined administration group, gemcitabine was administered at 240 mg/kg/day and Abraxane was administered at 30 mg/kg/day.\nIn this test, doses of Compound A and gemcitabine were set using MTD of each drug. Abraxane was used at the maximum dose usable in combination with each drug. […] In this test example, the MTD and the maximum effect dose are almost synonymous.\nAs an index of anti-tumor effect, TV at Day 33 was measured in each drug administration group. According to the following equation, a relative tumor volume (RTV) with respect to Day 1 and T/C (%) were calculated to evaluate the anti-tumor effect. […] TV (mm^3)=(major diameter×minor diameter^2)/2 RTV=(TV at Day 33)/(TV at Day 1) T/C (%)=[(average RTV value of test liquid administered group)/(average RTV value of control group)]×100\nOn the combinational effect of the present invention, the results of evaluation using a combination index (CI) which is a quantitative index of the combinational effect are shown. The CI can be calculated by the following equation according to Cancer Research, 2010, Vol. 70, pp. 440 to 446.\nThat is, in the case where the drugs to be used in combination are drugs 1 and 2, CI=(T/C at the time of combination use)÷100/{[(T/C of drug 1)÷100]×[(T/C of drug 2)÷100]} CI=1: additive effect CI>1: antagonistic effect CI<1: synergistic effect\nIn addition, on the combinational effect of the present invention, the results of evaluation using a tumor growth inhibitory effect (growth of control (GC)) are shown. For the evaluation method, the same method as in B of FIG. 5 of Molecular Cancer Therapeutics, 2013, Vol. 12, pp. […] was used.\nAs described in the above document, the GC can be calculated by the following equation. In the case where RTV>1 GC (%)=[(corresponding drug RTV-1)/(control RTV-1)]×100 [1] In the case where RTV≤1 GC (%)=(corresponding drug RTV-1)×100 [2]\nCombinational effect was estimated from the drug efficacy with Abraxane and Compound A or gemcitabine alone by the following calculation equation. The estimated combination use GC (%)=[GC (%) of Abraxane×drug alone GC (%)]÷100"}, "[2]": {"test_system": "tumor", "conditions": "oral administration to mice; cited from earlier work"}}}
{"smiles": "Nc1ccn([C@@H]2O[C@H](CO)[C@@H](O)C2(F)F)c(=O)n1", "note": "[Gem, gemcitabine, reference compound]", "values": [{"measurement": "T/C (%)", "setting": "[1]", "result": 68.3, "unit": "%"}, {"measurement": "GC (%)", "setting": "[1]", "result": 57.8, "unit": "%"}, {"measurement": "RTV (mean ± standard deviation)", "setting": "[1]", "result": "2.74 ± 0.41"}, {"measurement": "vs. control", "setting": "[1]", "result": "*"}]}
{"smiles": "Nc1ccn([C@@H]2S[C@H](CO)[C@@H](O)[C@@H]2F)c(=O)n1", "note": "[Compound A, 1-(2-deoxy-2-fluoro-4-thio-β-D-arabinofuranosyl)cytosine]", "values": [{"measurement": "enhancement of anti-tumor effect in combination use", "setting": "[1]; Compound A 480 mg/kg/day with Abraxane 30 mg/kg/day, nude mice", "result": "significantly enhanced the anti-tumor effect of Abraxane"}, {"measurement": "T/C (%)", "setting": "[1]", "result": 32.2, "unit": "%"}, {"measurement": "GC (%)", "setting": "[1]", "result": 9.6, "unit": "%"}, {"measurement": "RTV (mean ± standard deviation)", "setting": "[1]", "result": "1.29 ± 0.59"}, {"measurement": "vs. control", "setting": "[1]", "result": "*"}, {"measurement": "anti-tumor activity", "setting": "[2]", "result": "potent anti-tumor activity"}]}
